Test results from patent publication US20230257372A1 (CHONG KUN DANG PHARMACEUTICAL CORP., priority 2020, published 2023).
Read-outs that look alike come from different tables or passages of the source.

Experiments:
human recombinant HDAC1 = target: T1, human recombinant HDAC1 (Homo sapiens, UniProt Q13547); test: HDAC1 enzyme activity inhibition (HDAC Fluorimetric Drug Discovery Kit); format: biochemical; settings: read-out: HDAC1
T1 construct: purchased Enzo Life Science, Inc. BML-SE456
Outline: (§1)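 Compounds in 5-fold dilution series were incubated with […] enzyme and 10 μM substrate at 30° C for 60 minutes. Fluor de Lys Developer II was then added for 30 minutes to stop the reaction and develop the fluorescent signal.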

human recombinant HDAC6 = target: T2, human recombinant HDAC6 (Homo sapiens, UniProt Q9UBN7); test: HDAC6 enzyme activity inhibition (HDAC Fluorimetric Drug Discovery Kit); format: biochemical
T2 construct: purchased Calbiochem Inc. 382180
T2 sequence (Q9UBN7 1-1215): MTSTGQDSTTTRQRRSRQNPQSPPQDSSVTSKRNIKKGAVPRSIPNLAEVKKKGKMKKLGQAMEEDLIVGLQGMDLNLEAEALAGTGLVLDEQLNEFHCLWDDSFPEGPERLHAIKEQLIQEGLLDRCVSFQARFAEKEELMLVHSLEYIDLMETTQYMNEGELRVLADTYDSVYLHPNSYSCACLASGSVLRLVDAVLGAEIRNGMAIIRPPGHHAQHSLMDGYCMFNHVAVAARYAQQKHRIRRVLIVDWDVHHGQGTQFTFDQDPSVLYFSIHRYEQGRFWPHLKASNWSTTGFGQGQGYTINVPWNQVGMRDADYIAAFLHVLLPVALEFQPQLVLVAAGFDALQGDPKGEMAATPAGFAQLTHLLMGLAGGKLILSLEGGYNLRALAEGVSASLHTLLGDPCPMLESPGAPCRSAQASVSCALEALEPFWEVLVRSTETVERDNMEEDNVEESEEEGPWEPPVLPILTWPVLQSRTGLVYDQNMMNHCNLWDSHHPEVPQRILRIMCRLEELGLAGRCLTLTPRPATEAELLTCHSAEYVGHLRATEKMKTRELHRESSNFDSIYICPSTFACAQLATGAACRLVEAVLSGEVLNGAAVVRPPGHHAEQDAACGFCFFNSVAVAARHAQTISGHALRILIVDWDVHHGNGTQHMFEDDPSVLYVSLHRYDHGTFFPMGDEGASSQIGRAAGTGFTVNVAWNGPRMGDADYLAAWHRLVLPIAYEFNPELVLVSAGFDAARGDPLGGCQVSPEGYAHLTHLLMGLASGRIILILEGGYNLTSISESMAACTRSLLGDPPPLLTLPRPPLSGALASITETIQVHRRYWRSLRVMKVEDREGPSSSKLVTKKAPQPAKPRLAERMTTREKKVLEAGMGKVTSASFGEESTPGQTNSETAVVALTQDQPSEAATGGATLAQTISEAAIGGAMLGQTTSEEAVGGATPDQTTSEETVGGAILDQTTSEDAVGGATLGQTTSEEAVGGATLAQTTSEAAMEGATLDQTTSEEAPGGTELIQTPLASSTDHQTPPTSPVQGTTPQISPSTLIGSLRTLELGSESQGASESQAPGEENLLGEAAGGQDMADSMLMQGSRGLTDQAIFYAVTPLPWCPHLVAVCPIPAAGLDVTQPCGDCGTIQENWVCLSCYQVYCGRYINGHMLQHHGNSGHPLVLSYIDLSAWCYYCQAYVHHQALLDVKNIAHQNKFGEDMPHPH
Outline: as §1

[1] = test system: hippocampal neurons from a Sprague-Dawley (SD) rat fetus; test: Effect of HDAC6-specific inhibitor on axonal transport of mitochondria in amyloid-beta treated neurons; format: cell-based; settings: transport velocity of mitochondria in neuronal axon after normalization; vehicle = 100%, amyloid beta treatment group = 0%; compound treatment for three hours
Protocol: On the 17th to 18th days (E17-18) of insemination, the hippocampal neurons from a Sprague-Dawley (SD) rat fetus were cultured in a culture container for imaging, which had been coated with extracellular matrix, and were treated with amyloid-beta protein fragments at a concentration of […]. In 24 hours later, the neurons were treated with the compound on the 8th day of in vitro culture. In three hours later, the resulting neurons were treated with MitoTracker Red CMXRos (Life Technologies, NY, USA) for last five minutes to stain mitochondria. An image on the axonal transport of stained neuron mitochondria was taken with a confocal microscope (Leica SP8; Leica microsystems, UK) at an interval of one second for one minute to measure a transport velocity of each mitochondria per second with an IMARIS analysis program (BITPLANE, Zurich, Switzerland).
In result, after setting a section, in which the group treated with amyloid-beta had shown a significant decrease in the transport velocity of mitochondria compared to a vehicle, it was confirmed for 1,3,4-oxadiazole triazol derivative compounds of the present invention, stereoisomers thereof or pharmaceutically acceptable salts thereof that the vehicles is represented as 100%, the amyloid beta treatment group is represented as 0%, a velocity distribution of the compound after normalization is represented as *, 0%˜50%; **, 50%˜100%; ***, >100%.

[2] = human recombinant HDAC1, IC50 calculated with GraphPad Prism
[3] = human recombinant HDAC6, IC50 calculated with GraphPad Prism
[4] = human recombinant HDAC1, Fluor de Lys substrate, 30° C. 60 minutes
[5] = human recombinant HDAC6, same protocol as HDAC1

T1 sequence (Q13547 whole entry): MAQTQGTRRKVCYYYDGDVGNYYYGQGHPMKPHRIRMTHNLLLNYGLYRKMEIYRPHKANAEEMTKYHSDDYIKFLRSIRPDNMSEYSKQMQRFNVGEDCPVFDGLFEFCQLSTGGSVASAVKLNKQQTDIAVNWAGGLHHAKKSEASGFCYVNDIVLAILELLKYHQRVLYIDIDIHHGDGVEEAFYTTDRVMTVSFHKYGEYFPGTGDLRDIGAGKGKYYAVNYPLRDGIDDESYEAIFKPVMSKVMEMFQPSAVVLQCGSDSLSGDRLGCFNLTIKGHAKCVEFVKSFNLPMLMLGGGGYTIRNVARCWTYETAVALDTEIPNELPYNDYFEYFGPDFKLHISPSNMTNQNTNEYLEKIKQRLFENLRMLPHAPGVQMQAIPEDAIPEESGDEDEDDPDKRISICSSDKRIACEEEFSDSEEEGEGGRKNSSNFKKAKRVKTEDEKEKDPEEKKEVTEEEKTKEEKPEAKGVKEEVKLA

Structure (SMILES)	IC50 (human recombinant HDAC1; [2]) [nM]	HDAC6 selectivity (fold) (human recombinant HDAC6; HDAC1 IC50 / HDAC6 IC50)	IC50 (human recombinant HDAC6; [3]) [nM]	Velocity distribution (%) [1]	IC50 (human recombinant HDAC1; [4]) [nM]	HDAC6 selectivity (fold) (human recombinant HDAC6; HDAC6 over HDAC1)	IC50 (human recombinant HDAC6; [5]) [nM]
Fc1cc(-c2nnc(C(F)F)o2)ccc1Cn1cc(-c2cccc3[nH]ccc23)nn1 [Compound 4079, 2-(4-((4-(1H-indol-4-yl)-1H-1,2,3-triazol-1-yl)methyl)-3-fluorophenyl)-5-(difluoromethyl)-1,3,4-oxadiazole]	> 50000	1992	25.1	** (**, 50%˜100%)	–	–	–
CN1CCN(c2cccc(-c3cn(Cc4ccc(-c5nnc(C(F)F)o5)cc4F)nn3)c2)CC1 [Compound 4337, 2-(difluoromethyl)-5-(3-fluoro-4-((4-(3-(4-methylpiperazin-1-yl)phenyl)-1H-1,2,3-triazol-1-yl)methyl)phenyl)-1,3,4-oxadiazole]	> 50000	2092	23.9	*** (***, >100%)	–	–	–
FC(F)c1nnc(-c2ccc(Cn3cc(-c4ccc5[nH]ccc5c4)nn3)cc2)o1 [Compound 4080, 2-(4-((4-(1H-indol-5-yl)-1H-1,2,3-triazol-1-yl)methyl)phenyl)-5-(difluoromethyl)-1,3,4-oxadiazole]	> 50000	2145	23.3	*** (***, >100%)	–	–	–
FC(F)c1nnc(-c2ccc(Cn3cc(-c4ccc5[nH]cc(CN6CCOCC6)c5c4)nn3)nc2)o1 [Compound 4187, 4-((5-(1-((5-(5-(difluoromethyl)-1,3,4-oxadiazol-2-yl)pyridin-2-yl)methyl)-1H-1,2,3-triazol-4-yl)-1H-indol-3-yl)methyl)morpholine]	> 50000	5617	8.9	* (*, 0%˜50%)	–	–	–
FC(F)c1nnc(-c2ccc(Cn3nnc(-c4ccccc4)n3)nc2)o1 [Compound 4234, 2-(difluoromethyl)-5-(6-((5-phenyl-2H-tetrazol-2-yl)methyl)pyridin-3-yl)-1,3,4-oxadiazole]	> 50000	–	–	*** (***, >100%)	–	–	–
Fc1cc(-c2nnc(C(F)F)o2)ccc1Cn1cc(-c2ccccc2)nn1 [Compound 3658, 2-(difluoromethyl)-5-(3-fluoro-4-((4-phenyl-1H-1,2,3-triazol-1-yl)methyl)phenyl)-1,3,4-oxadiazole]	> 50000	863	57.9	* (*, 0%˜50%)	–	–	–
FC(F)c1nnc(-c2ccc(Cn3cc(-c4ccnc5[nH]ccc45)nn3)nc2)o1 [Compound 3840, 2-(6-((4-(1H-pyrrolo[2,3-b]pyridin-4-yl)-1H-1,2,3-triazol-1-yl)methyl)pyridin-3-yl)-5-(difluoromethyl)-1,3,4-oxadiazole]	> 50000	5681	8.8	** (**, 50%˜100%)	–	–	–
CCOC(=O)Nc1cccc(-c2cn(Cc3ccc(-c4nnc(C(F)F)o4)cn3)nn2)c1 [Compound 3826]	> 50000	4132	12.1	* (*, 0%˜50%)	–	–	–
CC(C)N1CC(N2CCC(c3cccc(-c4cn(Cc5ccc(-c6nnc(C(F)F)o6)cc5F)nn4)c3)CC2)C1 [Compound 4296]	> 50000	1547	32.3	** (**, 50%˜100%)	–	–	–
Fc1cc(-c2nnc(C(F)F)o2)ccc1Cn1cc(-c2ccc3[nH]ncc3c2)nn1 [Compound 4345, 2-(4-((4-(1H-indazol-5-yl)-1H-1,2,3-triazol-1-yl)methyl)-3-fluorophenyl)-5-(difluoromethyl)-1,3,4-oxadiazole]	> 50000	–	–	* (*, 0%˜50%)	–	–	–
FC(F)c1nnc(-c2ccc(Cn3cc(-c4cccc5c4CN(C4COC4)C5)nn3)nc2)o1 [Compound 4599, 2-(difluoromethyl)-5-(6-((4-(2-(oxetan-3-yl)isoindolin-4-yl)-1H-1,2,3-triazol-1-yl)methyl)pyridin-3-yl)-1,3,4-oxadiazole]	–	–	–	–	> 50000	662	75.5
Fc1cc(-c2nnc(C(F)F)o2)ccc1Cn1cc(-c2nccs2)nn1 [Compound 17848, 2-(difluoromethyl)-5-(3-fluoro-4-((4-(thiazol-2-yl)-1H-1,2,3-triazol-1-yl)methyl)phenyl)-1,3,4-oxadiazole]	–	–	–	–	> 50000	646	77.3
Fc1cc(-c2nnc(C(F)F)o2)ccc1Cn1cc(-c2ccc(CN3CC(F)C3)cc2)nn1 [Compound 4467, 2-(difluoromethyl)-5-(3-fluoro-4-((4-(4-((3-fluoroazetidin-1-yl)methyl)phenyl)-1H-1,2,3-triazol-1-yl)methyl)phenyl)-1,3,4-oxadiazole]	> 50000	2283	21.9	–	–	–	–
Fc1c(-c2cn(Cc3ccc(-c4nnc(C(F)F)o4)cn3)nn2)cccc1N1CCN(C2COC2)CC1 [Compound 4573, 2-(difluoromethyl)-5-(6-((4-(2-fluoro-3-(4-(oxetan-3-yl)piperazin-1-yl)phenyl)-1H-1,2,3-triazol-1-yl)methyl)pyridin-3-yl)-1,3,4-oxadiazole]	–	–	–	–	> 50000	2314	21.6
FC(F)c1nnc(-c2ccc(Cn3cc(-c4ccc5c(CN6CCCC6)c[nH]c5c4)nn3)nc2)o1 [Compound 4493, 2-(difluoromethyl)-5-(6-((4-(3-(pyrrolidin-1-ylmethyl)-1H-indol-6-yl)-1H-1,2,3-triazol-1-yl)methyl)pyridin-3-yl)-1,3,4-oxadiazole]	> 50000	7692	6.5	–	–	–	–
Fc1cc(-c2nnc(C(F)F)o2)ccc1Cn1cc(-c2cccc(NC3CCCCC3)c2)nn1 [Compound 4330, N-cyclohexyl-3-(1-(4-(5-(difluoromethyl)-1,3,4-oxadiazol-2-yl)-2-fluorobenzyl)-1H-1,2,3-triazol-4-yl)aniline]	> 50000	268	186	–	–	–	–
FC(F)c1nnc(-c2ccc(Cn3cc(-c4ccc(CNC5COC5)cc4)nn3)nc2)o1 [Compound 4566, N-(4-(1-((5-(5-(difluoromethyl)-1,3,4-oxadiazol-2-yl)pyridin-2-yl)methyl)-1H-1,2,3-triazol-4-yl)benzyl)oxetan-3-amine]	–	–	–	–	> 50000	1256	39.8
O=C(CO)N1CCC(c2cn(Cc3ccc(-c4nnc(C(F)F)o4)cn3)nn2)CC1 [Compound 3813, 1-(4-(1-((5-(5-(difluoromethyl)-1,3,4-oxadiazol-2-yl)pyridin-2-yl)methyl)-1H-1,2,3-triazol-4-yl)piperidin-1-yl)-2-hydroxyethan-1-one]	> 50000	166	300	–	–	–	–
